Legend:
C. albicans = test: Checkerboard with fluconazole, clinical isolates CaCi-2 and CaCi-17; type: cell-based, Candida albicans
Description: FIG. 9A depicts checkerboard assays as described in FIG. 2B and performed with isolates of C. albicans. CaCi-2 and CaCi-17 represent early and late clinical isolates in which FLC resistance evolved over time. Growth was measured at 24 hours using OD600 and normalized to a no drug control well (see color bar). FIG. 9B depicts dose response assays conducted in YPD medium with a C. albicans parental strain, and strains with gain of function mutations in TAC1 as indicated. FLC was tittered in a two-fold dilution on the x-axis in the absence and presence of 50 μM azoffluxin. Growth was measured at 24 hours using OD600 and normalized to a no drug control well (see color bar). […] FIGS. 9D and 9E depict the intracellular concentrations of FLC and azoffluxin measured after treatment (combo treatment at 6.25 μM azoffluxin and 8 μg/mL FLC) for 1 hour by LC-MS. […] Significance was determined by an unpaired student t-test of each combination to the respective compound alone treatment, (*) indicates a p-value<0.05 and (**) indicates a p-value<0.01.
Compound potency was assessed alone by dose response assays or in combination with another compound by dose-response matrixes in 96-well plates, or 384-well, flat-bottom, microtiter plates (Corning) as previously described. […] Growth was quantified by measuring OD600 and corrected for medium background. […]

C. glabrata (BG2) = test: Azoffluxin dose-response with background fluconazole; type: cell-based, Candida glabrata
Description: FIGS. 2A-2E illustrate the above-described screening of the BU-CMD which identified azoffluxin as a fluconazole (FLC) potentiator against C. auris. […] Growth, as determined by optical density at 600 nm (OD600), is plotted in the presence of each CMD compound alone on the y-axis and in combination with FLC on the x-axis. Dotted lines represent 7-median absolute deviations from the median for each condition. […] FIG. 2B depicts the synergistic interactions. […] Growth was measured by the OD600 and normalized to the no drug control (see color bar). The fractional inhibitory concentration index (FICI) was calculated to determine the chemical interaction, with a value below 0.5 indicating synergy. […] FIG. 2D depicts FLC Etest strips in the presence and absence of 50 μM azoffluxin. […]
Compound potency was assessed alone by dose response assays or in combination with another compound by dose-response matrixes in 96-well plates, or 384-well, flat-bottom, microtiter plates (Corning) as previously described. […] Growth was quantified by measuring OD600 and corrected for medium background. All strains were assessed in biological duplicate experiments with technical duplicates. […] For dose-response matrixes fractional inhibitory concentration index at 90% growth inhibition (FICI90) was calculated as previously described. […]

MDR1 (ABCB1) = target: T1, MDR1 (ABCB1) (Homo sapiens, UniProt P08183); test: Rhodamine 6G accumulation in MDR1-overexpressing HEK293 cells (flow cytometry); type: cell-based, mammalian
T1 construct: expressed in transfected cells; host or cells: HEK293
T1 sequence (P08183 whole entry): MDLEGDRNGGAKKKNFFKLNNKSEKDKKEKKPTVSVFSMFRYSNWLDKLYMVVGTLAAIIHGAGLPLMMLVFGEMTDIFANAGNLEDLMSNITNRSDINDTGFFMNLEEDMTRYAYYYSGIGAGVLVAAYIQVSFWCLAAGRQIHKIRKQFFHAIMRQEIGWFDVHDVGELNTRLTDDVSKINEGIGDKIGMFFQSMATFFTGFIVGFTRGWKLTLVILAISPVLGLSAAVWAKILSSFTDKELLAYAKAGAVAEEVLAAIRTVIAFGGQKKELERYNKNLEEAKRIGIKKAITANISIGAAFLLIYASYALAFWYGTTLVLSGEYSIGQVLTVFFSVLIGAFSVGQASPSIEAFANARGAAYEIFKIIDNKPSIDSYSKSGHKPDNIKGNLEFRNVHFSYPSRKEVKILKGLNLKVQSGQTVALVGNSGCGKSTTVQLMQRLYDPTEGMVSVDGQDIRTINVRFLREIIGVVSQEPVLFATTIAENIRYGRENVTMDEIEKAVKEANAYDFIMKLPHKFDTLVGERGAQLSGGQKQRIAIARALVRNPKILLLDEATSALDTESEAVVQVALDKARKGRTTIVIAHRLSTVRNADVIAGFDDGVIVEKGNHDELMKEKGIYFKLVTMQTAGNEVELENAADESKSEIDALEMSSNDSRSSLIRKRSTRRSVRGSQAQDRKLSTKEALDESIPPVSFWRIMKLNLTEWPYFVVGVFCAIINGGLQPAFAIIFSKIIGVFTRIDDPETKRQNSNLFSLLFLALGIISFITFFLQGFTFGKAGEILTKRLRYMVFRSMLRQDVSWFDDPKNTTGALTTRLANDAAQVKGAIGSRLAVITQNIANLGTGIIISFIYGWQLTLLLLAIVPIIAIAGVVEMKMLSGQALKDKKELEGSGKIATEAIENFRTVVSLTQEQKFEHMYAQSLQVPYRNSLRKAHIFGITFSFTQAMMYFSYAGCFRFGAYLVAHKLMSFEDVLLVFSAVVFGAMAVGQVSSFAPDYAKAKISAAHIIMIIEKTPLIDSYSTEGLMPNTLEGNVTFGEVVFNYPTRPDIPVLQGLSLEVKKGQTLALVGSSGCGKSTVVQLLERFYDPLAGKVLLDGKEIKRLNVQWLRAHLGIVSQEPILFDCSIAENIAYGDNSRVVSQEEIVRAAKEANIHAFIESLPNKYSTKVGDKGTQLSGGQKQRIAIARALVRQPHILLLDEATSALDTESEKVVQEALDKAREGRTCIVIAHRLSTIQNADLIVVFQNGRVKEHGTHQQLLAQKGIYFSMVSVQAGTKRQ
Description: P-gp overexpressing HEK293 cell lines were used to determine if azoffluxin treatment leads to a greater accumulation of fluorescent substrates (MFI) as determined by flow cytometry.
MDR1 (ABCB1) and MRP1 (ABCC1) was assessed using the fluorescent dyes rhodamine 6G (0.5 μg/mL) and Calcein AM (2.5 μg/mL), for each pump respectively, and the known inhibitor controls tariquidar (60 nM) and MK571 (30 μM) for each pump respectively. Listed data is shown by FIG. 12E (R6G) and FIG. 12F (Cal).

Question: What does the source list for `C=C(C)C[C@@H](O)COc1cc2c(cc1C1(c3cc4c(cc3OC[C@H](O)CC(=C)C)OCO4)C(=O)Nc3cc(F)ccc31)OCO2` [CMLD012336]?
Answer: potentiation of fluconazole (C. albicans; early clinical isolate CaCi-2): No potentiation; potentiation of fluconazole (C. albicans; late clinical isolate CaCi-17): did potentiate fluconazole; enhancement of fluconazole efficacy (C. glabrata (BG2); C. glabrata, despite increasing Nile red): did not enhance the efficacy of fluconazole; enhancement of fluconazole activity (C. glabrata (BG2); fluconazole-sensitive laboratory strain BG2, background FLC 0.25 μg/mL): did not enhance the activity of fluconazole; dye accumulation in control cDNA cells (MDR1 (ABCB1)): no effect
